{"source": "paper PMC9848300", "about": "“Discovery of novel enasidenib analogues targeting inhibition of mutant isocitrate dehydrogenase 2 as antileukaemic agents” (Journal of Enzyme Inhibition and Medicinal Chemistry, 2023)", "key": {"[1]": {"system": "IDH1 R132H", "conditions": "Figure 2; cited from earlier work"}, "[2]": {"system": "T-47D", "test": "NCI 60 antitumor screening (single dose / five doses)", "assay_type": "cell-based", "conditions": "Homo sapiens, T47D"}, "[3]": {"system": "MDA-MB-231/ATCC", "test": "NCI 60 antitumor screening (single dose / five doses)", "assay_type": "cell-based", "conditions": "Homo sapiens, MDA-MB-231"}, "[4]": {"system": "DU-145", "test": "NCI 60 antitumor screening (single dose / five doses)", "assay_type": "cell-based", "conditions": "Homo sapiens, DU-145"}, "[5]": {"target": "T1, wild type IDH2 (Homo sapiens, UniProt P48735)", "T1 sequence (P48735 40-452)": "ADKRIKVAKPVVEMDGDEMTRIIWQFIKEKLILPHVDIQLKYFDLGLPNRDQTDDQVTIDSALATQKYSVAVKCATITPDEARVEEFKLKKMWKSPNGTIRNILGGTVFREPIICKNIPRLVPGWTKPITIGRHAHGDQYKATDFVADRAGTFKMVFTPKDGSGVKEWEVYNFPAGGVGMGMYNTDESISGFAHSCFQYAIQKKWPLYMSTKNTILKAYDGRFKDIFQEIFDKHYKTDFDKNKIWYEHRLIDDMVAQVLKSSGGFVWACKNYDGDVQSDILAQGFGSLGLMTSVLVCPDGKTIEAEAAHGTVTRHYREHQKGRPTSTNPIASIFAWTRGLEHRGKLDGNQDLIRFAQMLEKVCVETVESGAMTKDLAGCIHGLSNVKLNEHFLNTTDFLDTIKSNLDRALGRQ", "test": "IDH2 enzyme inhibition assay (wild type IDH Assay Kit)"}, "[6]": {"system": "UO-31", "test": "NCI 60 antitumor screening (single dose / five doses)", "assay_type": "cell-based", "conditions": "Homo sapiens, UO-31"}, "[7]": {"system": "SW-620", "test": "NCI 60 antitumor screening (single dose / five doses)", "assay_type": "cell-based, human", "conditions": "Homo sapiens, SW-620"}, "[8]": {"system": "BT-549", "test": "NCI 60 antitumor screening (single dose / five doses)", "assay_type": "cell-based", "conditions": "Homo sapiens, BT-549"}, "[9]": {"system": "EKVX", "test": "NCI 60 antitumor screening (single dose / five doses)", "assay_type": "cell-based", "conditions": "Homo sapiens, EKVX"}, "[10]": {"system": "MDA-MB-468", "test": "NCI 60 antitumor screening (single dose / five doses)", "assay_type": "cell-based", "conditions": "Homo sapiens, MDA-MB-468"}, "[11]": {"system": "A498", "test": "NCI 60 antitumor screening (single dose / five doses)", "assay_type": "cell-based", "conditions": "Homo sapiens, A498"}, "[12]": {"target": "T2, IDH2^R140Q (Homo sapiens, UniProt P48735, R140Q)", "T2 sequence (P48735 40-452 R140Q)": "T1 sequence (P48735 40-452) with R101Q", "test": "biochemical"}, "[13]": {"system": "IDH2 R140Q", "conditions": "Figure 2; cited from earlier work"}, "[14]": {"system": "UACC-257", "test": "NCI 60 antitumor screening (single dose / five doses)", "assay_type": "cell-based", "conditions": "Homo sapiens, UACC-257"}, "[15]": {"system": "SNB-75", "test": "NCI 60 antitumor screening (single dose / five doses)", "assay_type": "cell-based", "conditions": "Homo sapiens, SNB-75"}, "[16]": {"system": "LOX IMVI", "test": "NCI 60 antitumor screening (single dose / five doses)", "assay_type": "cell-based", "conditions": "Homo sapiens, LOX IMVI"}, "[17]": {"system": "HT29", "test": "NCI 60 antitumor screening (single dose / five doses)", "assay_type": "cell-based, human", "conditions": "Homo sapiens, HT-29"}, "[18]": {"system": "NCI/ADR-RES", "test": "NCI 60 antitumor screening (single dose / five doses)", "assay_type": "cell-based", "conditions": "Homo sapiens, NCI/ADR-RES"}, "[19]": {"system": "SK-MEL-28", "test": "NCI 60 antitumor screening (single dose / five doses)", "assay_type": "cell-based", "conditions": "Homo sapiens, SK-MEL-28"}, "[20]": {"system": "ACHN", "test": "NCI 60 antitumor screening (single dose / five doses)", "assay_type": "cell-based", "conditions": "Homo sapiens, ACHN"}, "[21]": {"system": "HL-60(TB)", "test": "NCI 60 antitumor screening (single dose / five doses)", "assay_type": "cell-based", "conditions": "Homo sapiens, HL-60"}, "[22]": {"system": "SK-MEL-5", "test": "NCI 60 antitumor screening (single dose / five doses)", "assay_type": "cell-based", "conditions": "Homo sapiens, SK-MEL-5"}, "[23]": {"system": "SN 12C", "test": "NCI 60 antitumor screening (single dose / five doses)", "assay_type": "cell-based", "conditions": "Homo sapiens, SN12C"}, "[24]": {"system": "HOP-92", "test": "NCI 60 antitumor screening (single dose / five doses)", "assay_type": "cell-based", "conditions": "Homo sapiens, HOP-92"}, "[25]": {"system": "SF-295", "test": "NCI 60 antitumor screening (single dose / five doses)", "assay_type": "cell-based", "conditions": "Homo sapiens, SF-295"}, "[26]": {"system": "UACC-62", "test": "NCI 60 antitumor screening (single dose / five doses)", "assay_type": "cell-based", "conditions": "Homo sapiens, UACC-62"}, "[27]": {"system": "SR", "test": "NCI 60 antitumor screening (single dose / five doses)", "assay_type": "cell-based", "conditions": "Homo sapiens, SR"}, "[28]": {"system": "MOLT-4", "test": "NCI 60 antitumor screening (single dose / five doses)", "assay_type": "cell-based", "conditions": "Homo sapiens, MOLT-4"}, "[29]": {"system": "COLO 205", "test": "NCI 60 antitumor screening (single dose / five doses)", "assay_type": "cell-based", "conditions": "Homo sapiens, COLO 205"}, "[30]": {"system": "MALME-3M", "test": "NCI 60 antitumor screening (single dose / five doses)", "assay_type": "cell-based", "conditions": "Homo sapiens, Malme-3M"}, "[31]": {"system": "K-562", "test": "NCI 60 antitumor screening (single dose / five doses)", "assay_type": "cell-based", "conditions": "Homo sapiens, K562"}, "[32]": {"system": "SF-539", "test": "NCI 60 antitumor screening (single dose / five doses)", "assay_type": "cell-based", "conditions": "Homo sapiens, SF-539"}, "[33]": {"system": "MDA-MB-435", "test": "NCI 60 antitumor screening (single dose / five doses)", "assay_type": "cell-based", "conditions": "Homo sapiens, MDA-MB-435"}, "[34]": {"system": "CCRF-CEM", "test": "NCI 60 antitumor screening (single dose / five doses)", "assay_type": "cell-based", "conditions": "Homo sapiens, CCRF-CEM"}, "[35]": {"system": "786-0", "test": "NCI 60 antitumor screening (single dose / five doses)", "assay_type": "cell-based", "conditions": "Homo sapiens, 786-0"}, "[36]": {"system": "RPMI-8226", "test": "NCI 60 antitumor screening (single dose / five doses)", "assay_type": "cell-based", "conditions": "Homo sapiens, RPMI-8226"}, "[37]": {"system": "RXF 393", "test": "NCI 60 antitumor screening (single dose / five doses)", "assay_type": "cell-based", "conditions": "Homo sapiens, RXF 393"}, "[38]": {"system": "HCT-15", "test": "NCI 60 antitumor screening (single dose / five doses)", "assay_type": "cell-based", "conditions": "Homo sapiens, HCT-15"}, "[39]": {"system": "IGROV1", "test": "NCI 60 antitumor screening (single dose / five doses)", "assay_type": "cell-based", "conditions": "Homo sapiens, IGROV-1"}, "[40]": {"system": "HCT-116", "test": "NCI 60 antitumor screening (single dose / five doses)", "assay_type": "cell-based", "conditions": "Homo sapiens, HCT-116"}}, "note": "Where a chain is given by its changes, count along the chain named."}
{"smiles": "C[C@@H](Nc1nc(N[C@H](C)C(F)(F)F)nc(-c2cccc(Cl)n2)n1)C(F)(F)F", "note": "[Vorasidenib]", "values": [{"measurement": "IC50", "setting": "[1]", "value": 0.006, "unit": "µM"}]}
{"smiles": "CC(C)(O)CNc1nc(Nc2ccnc(C(F)(F)F)c2)nc(-c2cccc(C(F)(F)F)n2)n1", "note": "[Enasidenib]", "values": [{"measurement": "GI50", "setting": "[2]", "value": 15.8, "unit": "µM"}, {"measurement": "GI50", "setting": "[3]", "value": 19.9, "unit": "µM"}, {"measurement": "GI50", "setting": "[4]", "value": 19.9, "unit": "µM"}, {"measurement": "IC50", "setting": "[5]", "value": "2.33 ± 0.09", "unit": "µM"}, {"measurement": "GI50", "setting": "[6]", "value": 19.9, "unit": "µM"}, {"measurement": "GI50", "setting": "[7]", "value": 25.1, "unit": "µM"}, {"measurement": "GI50", "setting": "[8]", "value": 15.8, "unit": "µM"}, {"measurement": "GI50", "setting": "[9]", "value": 19.9, "unit": "µM"}, {"measurement": "GI50", "setting": "[10]", "value": 19.9, "unit": "µM"}, {"measurement": "GI50", "setting": "[11]", "value": 15.8, "unit": "µM"}, {"measurement": "IC50", "setting": "[12]", "value": "0.0755 ± 0.00369", "unit": "µM"}, {"measurement": "IC50", "setting": "[13]", "value": 0.1, "unit": "µM"}, {"measurement": "GI50", "setting": "[14]", "value": 19.9, "unit": "µM"}, {"measurement": "GI50", "setting": "[15]", "value": 15.8, "unit": "µM"}, {"measurement": "GI50", "setting": "[16]", "value": 15.8, "unit": "µM"}, {"measurement": "GI50", "setting": "[17]", "value": 15.8, "unit": "µM"}, {"measurement": "GI50", "setting": "[18]", "value": 15.8, "unit": "µM"}, {"measurement": "GI50", "setting": "[19]", "value": 15.8, "unit": "µM"}, {"measurement": "GI50", "setting": "[20]", "value": 25.1, "unit": "µM"}, {"measurement": "GI50", "setting": "[21]", "value": 19.9, "unit": "µM"}, {"measurement": "GI50", "setting": "[22]", "value": 12.6, "unit": "µM"}, {"measurement": "GI50", "setting": "[23]", "value": 19.9, "unit": "µM"}, {"measurement": "GI50", "setting": "[24]", "value": 25.1, "unit": "µM"}, {"measurement": "GI50", "setting": "[25]", "value": 15.8, "unit": "µM"}, {"measurement": "GI50", "setting": "[26]", "value": 15.8, "unit": "µM"}, {"measurement": "GI50", "setting": "[27]", "value": 19.9, "unit": "µM"}, {"measurement": "GI50", "setting": "[28]", "value": 12.6, "unit": "µM"}, {"measurement": "GI50", "setting": "[29]", "value": 19.9, "unit": "µM"}, {"measurement": "GI50", "setting": "[30]", "value": 19.9, "unit": "µM"}, {"measurement": "GI50", "setting": "[31]", "value": 31.6, "unit": "µM"}, {"measurement": "GI50", "setting": "[32]", "value": 15.8, "unit": "µM"}, {"measurement": "GI50", "setting": "[33]", "value": 15.8, "unit": "µM"}, {"measurement": "GI50", "setting": "[34]", "value": 19.9, "unit": "µM"}, {"measurement": "GI50", "setting": "[35]", "value": 19.9, "unit": "µM"}, {"measurement": "GI50", "setting": "[36]", "value": 19.9, "unit": "µM"}, {"measurement": "GI50", "setting": "[37]", "value": 19.9, "unit": "µM"}, {"measurement": "GI50", "setting": "[38]", "value": 19.9, "unit": "µM"}, {"measurement": "GI50", "setting": "[39]", "value": 31.6, "unit": "µM"}, {"measurement": "GI50", "setting": "[40]", "value": 15.8, "unit": "µM"}]}
{"smiles": "CC(C)Nc1cc(Nc2cccc(C(F)(F)F)n2)nc(-c2cccc(Cl)c2)c1", "note": "[II]", "values": [{"measurement": "IC50", "setting": "[13]", "value": 0.06, "unit": "µM"}]}
{"smiles": "CC(C)(C)ONc1nc(Nc2ccnc(C(F)(F)F)c2)nc(-c2cccc(C(F)(F)F)n2)n1", "note": "[TQ05310]", "values": [{"measurement": "IC50", "setting": "[13]", "value": 0.137, "unit": "µM"}]}
{"smiles": "O=C(Nc1cccc(C(F)(F)F)c1)Nc1cc(S(=O)(=O)NC2CC2)ccc1-c1ccsc1", "note": "[AGI-6780]", "values": [{"measurement": "IC50", "setting": "[13]", "value": 0.023, "unit": "µM"}]}
{"smiles": "Cc1ccc(Cl)cc1NC(=O)Nc1cc(NC(=O)c2ccccc2)ccc1N1CCCC1", "note": "[CP-17]", "values": [{"measurement": "IC50", "setting": "[13]", "value": 0.041, "unit": "µM"}]}
{"smiles": "CC(C)Nc1cc(Nc2cc(C(F)(F)F)ccn2)nc(-c2ccccc2)c1", "note": "[I]", "values": [{"measurement": "IC50", "setting": "[13]", "value": 0.055, "unit": "µM"}]}
{"smiles": "CC(C)Nc1cc(Nc2cccc(C(F)(F)F)n2)nc(-c2cccc(C(F)(F)F)c2)c1", "note": "[III]", "values": [{"measurement": "IC50", "setting": "[13]", "value": 0.074, "unit": "µM"}]}
